The record followed here is patent US7838495B2, “Compositions and methods of use of EPB1, and ErbB3 binding protein” (University of Maryland, Baltimore, priority 2007, dated 2010).

One test concerns the target AR (Homo sapiens, UniProt P10275, T878A). The protocol:
Luciferase Reporter Assays: Vector control or EBP1-transfected LNCaP (5×10^4) cells were plated in twelve-well plates in complete media. When cells reached 50-60% confluence, they were transfected with 0.5 μg of MMTV-luc using the Fugene-6 reagent (Roche). Cells were also transfected with the RL-TK vector as an internal control. […] Luciferase activity was determined as previously described using a Dual-Luciferase kit (Promega, Madison, Wis.). The activities of renilla luciferase were used to normalize any variations in transfection efficiency. The promoter activities of each plasmid construct were calculated as the firefly-renilla luciferase activity ratios. All transfection experiments were carried out in triplicate wells and repeated three times.

The subject of test [1] is AR regulated MMTV promoter. Nature of the test: MMTV-luciferase reporter response to R1881 in A16 and C13 cells. Particulars: EBP1 knock out cells vs A16, R1881 10^-8 M, p<0.05. The format is cell-based, human. The protocol:
FIG. 7A-C. Suppression of EBP1 by shRNA promotes a hormone refractory phenotype A. Western blot analysis of Ebp1. Lysates of LNCaP cells stably transduced with a control lentivirus (A16) or an EBP1 targeted shRNA (13C) were collected and resolved by SDS-PAGE. Western blots were probed for endogenous EBP1 or ACTIN as indicated. B. Inhibition of EBP1 expression abrogates the ability of HRG to arrest growth (Left panel) Control and shRNA EBP1 targeted cells were plated in complete media at […] for one day. The next day, cells were switched to steroid reduced-media and HRG added at the indicated concentrations. Total cell numbers were determined seven days later by MTT assay. Each point represents mean±S.E. of 6 wells. Data is representative of three experiments. (Right Panel) AKT phosphorylation in EBP1 knock out cells Control (A16) or EBP 1 knock out cells (C13) were treated with HRG (20 ng/ml) for 15 mm and cell lysates assessed for the presence of phospho and total AKT as indicated. C. […] Sixteen hours later, luciferase activity was measured. […] Lysates of logarithmically growing A16 and C13 cells were resolved by SDS-PAGE and analyzed by Western blotting using antibodies to AGR2 and ACTIN as indicated. […] The viability of the cells was determined by MTT assays 5 days later. […]

A further test relates to LNCaP cells. In words: Growth response of LNCaP vector controls and EBP1 transfectants to DHT and bicalutamide. Set-up: Emax: dose or concentration left out as unconfirmed. It counts as cell-based, human. The protocol: Cell Growth Assays: To measure growth in complete media, cells (2×10^4) were seeded in triplicate in individual wells of 12-well tissue culture plates in RPMI-1640 with 10% FBS and cultured for the indicated number of days. Cells were trypsinized, stained with Trypan Blue (0.4%), and counted in a hemacytometer. For soft agar growth assays, increasing concentrations of cells (as indicated) were plated in 35 mm Petri dishes in complete media and 0.3% Difco Bacto Agar over an 0.5% agar layer. Colonies were counted after 10 days of incubation. For studies assessing the effect of dihydrotestosterone (DHT) on cell growth, cells (2×10^4) were plated in 12-well plates in complete media. After a 24-hour attachment period, the medium was replaced with steroid-free medium [phenol red-free RPMI 1640 and 5% charcoal-stripped FBS (Sigma)] for 48 hours. The final concentration of testosterone in the steroid-reduced media was less than 5 pM. After 48 hours of steroid depletion, cells were re-fed with fresh steroid-reduced medium with or without the indicated concentrations of DHT and/or bicalutamide (10 μM), and total cell numbers were assessed 7 days later.

The next test deals with C81 cells. In words: Response of C81 transfectants to DHT and bicalutamide. It counts as cell-based, human. The settings on record: steroid reduced medium. On the procedure: FIG. 4A-C. […] Equal numbers (5×10^4) of vector or EBP1 stably transfected cells were plated at Day 0 in complete media and viable cell numbers determined at the indicated times. Each point represents mean±S.E. of 3 wells. Representative of 3 experiments (Right panel). Colony growth in soft agar. C81 cells stably transfected with either pcDNA or EBP1 were plated in soft agar at the cell densities indicated and colony numbers assessed at Day 10. Each point represents mean±S.E. of 3 dishes. Data is representative of 3 experiments. B. (Left Panel) Response of EBP1 and vector transfected C81 cells to dihydrotestosterone (DHT). EBP1 and vector control C81 transfected cells and early passage LNCaP cells were plated in complete media at 5×10^3 cells/well in 96 well plates for one day. […] Total cell numbers were determined seven days later by MTT assays. […] Total cell numbers were assessed 7 days later by MTT assay. […] Total cell numbers were determined by MTT assays 5 days later. […]
Western Blot Analysis. […] For soft agar growth assays, increasing concentrations of cells (as indicated) were plated in 35 mm Petri dishes in 0.3% agar in complete media and colonies were counted after 10 days of incubation (21). […] Relative cell growth was determined using a Promega Proliferation Reagent (Promega, Madison Wis.) as per manufacturer's instructions with absorbance being read at […] using a Dynex plate reader. […]

Sequence of AR (P10275 whole entry T878A): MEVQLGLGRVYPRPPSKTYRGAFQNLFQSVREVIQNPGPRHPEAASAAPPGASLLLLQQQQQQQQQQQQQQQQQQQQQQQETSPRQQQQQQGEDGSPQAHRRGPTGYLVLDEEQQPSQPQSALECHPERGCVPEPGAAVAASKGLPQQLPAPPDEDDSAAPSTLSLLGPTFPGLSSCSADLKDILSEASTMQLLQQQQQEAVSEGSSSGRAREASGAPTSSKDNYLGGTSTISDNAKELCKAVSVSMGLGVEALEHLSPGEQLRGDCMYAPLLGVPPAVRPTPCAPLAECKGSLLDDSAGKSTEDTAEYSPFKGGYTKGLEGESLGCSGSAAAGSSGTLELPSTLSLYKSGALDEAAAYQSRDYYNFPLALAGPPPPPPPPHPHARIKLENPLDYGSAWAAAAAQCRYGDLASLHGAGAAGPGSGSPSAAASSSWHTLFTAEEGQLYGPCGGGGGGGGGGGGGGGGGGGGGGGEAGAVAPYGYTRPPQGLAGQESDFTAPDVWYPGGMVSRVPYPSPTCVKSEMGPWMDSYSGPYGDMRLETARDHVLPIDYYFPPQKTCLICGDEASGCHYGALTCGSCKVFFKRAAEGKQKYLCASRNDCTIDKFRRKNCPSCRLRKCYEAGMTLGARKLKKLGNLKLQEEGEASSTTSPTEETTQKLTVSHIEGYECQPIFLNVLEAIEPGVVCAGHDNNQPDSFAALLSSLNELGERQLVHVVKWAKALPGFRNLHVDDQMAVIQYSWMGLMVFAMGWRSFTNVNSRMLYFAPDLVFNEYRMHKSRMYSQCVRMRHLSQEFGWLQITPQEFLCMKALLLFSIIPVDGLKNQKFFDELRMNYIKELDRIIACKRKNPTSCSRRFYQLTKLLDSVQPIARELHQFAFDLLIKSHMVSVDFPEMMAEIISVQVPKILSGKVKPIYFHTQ

For `C[C@]1(O)CC[C@H]2[C@@H]3CCC4=CC(=O)CCC4=C3C=C[C@@]21C` [R1881], the “AR activation (MMTV-luc)” value on AR (LNCaP EPB1 transfectants) is reported as “neither R1881 nor cyproterone acetate nor the combination thereof stimulated AR activation”. Also, on AR (LNCaP vector controls, 10^-8 M), the “activation of MMTV-luc luciferase activity” value came out at 20 fold. Besides, the “transcriptional response of AR regulated MMTV promoter to R1881” value in test [1] is reported as “enhanced”.

In the case of `C[C@]12CCC(=O)C[C@@H]1CC[C@@H]1[C@@H]2CC[C@]2(C)[C@@H](O)CC[C@@H]12` [DHT, dihydrotestosterone], the Emax with LNCaP cells (Homo sapiens, LNCaP, read-out: maximal stimulation of growth by DHT) is 250%. In addition, the “stimulation of growth by DHT” value with LNCaP cells (LNCaP EBP1 transfectants, 10^-9 M DHT) turned out to be 35%. For the same compound, the “growth response to androgen (DHT)” value is given as “responded to androgen in a similar manner as the original low passage LNCaP androgen sensitive cells” with C81 cells (EBP1 transfected C81 cells) and “unresponsive” in the test with C81 cells (vector control C81 cells).
